# Measurements: patent publication US10881110B2, “Herbicidal compositions comprising isoxazolo[5,4-b]pyridines” (BASF SE, priority 2014, dated 2021)
# Values joined by “and” are separate entries in the source; they are usually repeats but may differ in a detail not shown here. Equal entries are not always repeated. Where two headings read alike, the source gives them in different places.
# How the values were obtained:
# Experiment in all cases: greenhouse post-emergence herbicidal test
# [1] = tested on: ABUTH; type: in vivo, Abutilon theophrast; design: key to herbicidal activity against ABUTH found: rating on a scale from 0 to 100; settings: post emergence; for pest or weed control at 31.25 g/ha / pest or weed control at 62.5 g/ha: Abutilon theophrasti, post-emergence, 480 h, read-out: herbicidal activity against ABUTH found
# Outline: (§1)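 Visual rating at 20 days after treatment used a 0–100 scale, where 100 meant no emergence or complete destruction of above-ground parts. Seedlings of 1–15 cm, grown at species-dependent 10-25° C or 20-35° C, received water-based spray liquor containing the formulated components.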
# [2] = tested on: DIGSA; type: in vivo, Digitaria sanguinalis
# Procedure: (§2) The culture containers used were plastic pots containing medium loamy sand with approximately 4.6% of humus and 69.9% sand as substrate. The seeds of the test plants were sown separately for each species.
# (§3) For the post-emergence treatment, the test plants were grown to a plant height of from 1 to 15 cm, depending on the plant habit, and only then treated with the active compounds which had been suspended or emulsified in water. To this end, the test plants were either sown directly, and grown in the same containers, or they were first grown separately as seedlings and transplanted into the test containers a few days prior to treatment.
# (§4) Depending on the species, the plants were kept at 10-25° C. and 20-35° C., respectively.
# (§5) The test period extended over 1 to 3 weeks. During this time, the plants were tended and their response to the individual treatments was evaluated 20 days after treatment except mentioned otherwise.
# (§6) Evaluation was carried out using a scale from 0 to 100. 100 means no emergence of the plants, or complete destruction of at least the above-ground parts, and 0 means no damage or normal course of growth.
# (§7) The respective stated components A and B, and, if appropriate, C, were formulated as a 10% by weight strength emulsion concentrate and, with addition of the amount of solvent system, introduced into the spray liquor used for applying the active compound. In the examples, the solvent used was water.
# (§8) In the examples below, using the method of S. R. Colby (1967) “Calculating synergistic and antagonistic responses of herbicide combinations”, Weeds 15, p. 22 ff., the value E, which is expected if the activity of the individual active compounds is only additive, was calculated. E=X+Y−(X·Y/100)
# [3] = tested on: GALAP; type: in vivo, Galium aparine; design: key to herbicidal activity against GALAP found: rating on a scale from 0 to 100; settings: post emergence; for pest or weed control at 31.25 g/ha / pest or weed control at 62.5 g/ha / pest or weed control at 125 g/ha: Galium aparine, post-emergence, 480 h, read-out: herbicidal activity against GALAP found; for pest or weed control at 125 g/ha: 125 g/ha a.i.
# Outline: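 Herbicidal activity scored on a 0 (no damage) to 100 (plants destroyed) scale, usually 20 days after water-based spraying of 1–15 cm plants grown in loamy sand at 10-25 °C or 20-35 °C depending on species. Components were applied from 10% emulsion concentrates; Colby's E=X+Y−(X·Y/100) gives the additive expectation.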
# [4] = tested on: PANMI; type: in vivo, Panicum miliaceum; settings: application rate a.i.: I.1 125 g/ha, alone or as mixture (composition 1.113)
# Procedure: as §2, §3, §4, §5, §6, §7, §8
# [5] = tested on: PAPRH; type: in vivo, Papaver rhoeas; design: key: rating on a scale from 0 to 100
# Outline: as §1
# [6] = I.1 31.25 g/ha, B.88 1 g/ha a.i.
# [7] = a.i. g/ha: I.1 15.6, B.67 125, 20 days after treatment
# [8] = a.i. g/ha: I.1 31.25, B.67 125, 20 days after treatment
# [9] = a.i. g/ha: I.1 62.5, B.69 25, 20 days after treatment
# [10] = application rate a.i.: I.1 62.5 g/ha, B.107 (topramezone) 6 g/ha, alone or as mixture (composition 1.107)
# [11] = applied alone at 31.25 g/ha a.i.
# [12] = applied alone at 62.5 g/ha a.i.
# [13] = I.1 31.25 g/ha, B.95 1 g/ha a.i.
compound,measurement,setting,value
O=C(O)c1cc(C2CC2)nc2onc(C3CC3)c12 [I.1],pest or weed control at 31.25 g/ha,[1]; I.1 alone 31.25 g/ha a.i.,0%
same,pest or weed control at 62.5 g/ha,[1]; I.1 alone 62.5 g/ha a.i.,65%
same,pest or weed control at 62.5 g/ha,[1]; 62.5 g/ha a.i.,25%
same,pest or weed control at 31.25 g/ha,[1]; I.1 31.25 g/ha a.i.,20%
same,pest or weed control at 31.25 g/ha,"[1]; single active, 31.25 g/ha a.i.",0%
same,herbicidal activity against ABUTH found,"[1]; 6 days after treatment, g/ha a.i.: I.1 31.25, B.96 35, mixture 31.25+35",35
same,herbicidal activity against ABUTH found,"[1]; 6 days after treatment, g/ha a.i.: I.1 31.25, B.96 70, mixture 31.25+70",35
same,herbicidal activity against ABUTH found,"[1]; 6 days after treatment, g/ha a.i.: I.1 31.25, naptalam 100, mixture 31.25+100",35
same,herbicidal activity against ABUTH found,[1]; [6],60
same,herbicidal activity against ABUTH found,"[1]; I.1 31.25 g/ha, B.89 25 g/ha a.i.",60
same,herbicidal activity against ABUTH found,"[1]; I.1 62.5 g/ha, B.167 62.5 g/ha a.i.",0
same,herbicidal activity against ABUTH found,"[1]; I.1 62.5 g/ha, B.167 125 g/ha a.i.",0
same,herbicidal activity against ABUTH found,"[1]; a.i. g/ha: I.1 7.8, B.67 125, 20 days after treatment",0%
same,herbicidal activity against ABUTH found,[1]; [7],30%
same,herbicidal activity against ABUTH found,[1]; [8],60%
same,herbicidal activity against ABUTH found,"[1]; a.i. g/ha: I.1 31.25, B.67 125, 20 days after treatment, sub-table r36-r43",60%
same,herbicidal activity against ABUTH found,"[1]; a.i. g/ha: I.1 62.5, B.67 125, 20 days after treatment",90%
same,herbicidal activity against ABUTH found,[1]; [9],50%
same,herbicidal activity against ABUTH found,"[1]; application rate a.i.: I.1 20.8 g/ha, B.107 (topramezone) 6 g/ha, alone or as mixture (composition 1.107)",0
same,herbicidal activity against ABUTH found,"[1]; application rate a.i.: I.1 31.25 g/ha, B.139 (pyroxasulfone) 25 g/ha, alone or as mixture (composition 1.139)",10
same,herbicidal activity against ABUTH found,[1]; [10],66
same,herbicidal activity against ABUTH found,[1]; [11],30 and 25
same,herbicidal activity against ABUTH found,[1]; [12],50 and 85
same,herbicidal activity against ABUTH found,[1]; applied alone at 125 g/ha a.i.,60
same,herbicidal activity against ABUTH found,"[1]; g/ha a.i.: I.1 31.25, B.20 2, mixture 31.25+2",15
same,herbicidal activity against ABUTH found,"[1]; g/ha a.i.: I.1 31.25, B.20 4, mixture 31.25+4",15
same,herbicidal activity against ABUTH found,"[1]; g/ha a.i.: I.1 31.25, B.24 2, mixture 31.25+2",15
same,herbicidal activity against ABUTH found,"[1]; g/ha a.i.: I.1 31.25, B.52 2.5, mixture 31.25+2.5",15
same,herbicidal activity against ABUTH found,"[1]; g/ha a.i.: I.1 31.25, B.52 5, mixture 31.25+5",15
same,herbicidal activity against ABUTH found,"[1]; g/ha a.i.: I.1 62.5, B.52 2.5, mixture 62.5+2.5",60
same,herbicidal activity against DIGSA found,"[2]; a.i. g/ha: I.1 31.25, B.76 225, 20 days after treatment",35%
same,herbicidal activity against DIGSA found,"[2]; a.i. g/ha: I.1 62.5, B.76 225, 20 days after treatment",40%
same,herbicidal activity against DIGSA found,"[2]; a.i. g/ha: I.1 62.5, B.80 250, 20 days after treatment",40%
same,herbicidal activity against DIGSA found,"[2]; application rate a.i.: I.1 250 g/ha, B.193 15 g/ha, alone or as mixture (composition 1.193)",35
same,pest or weed control at 31.25 g/ha,[3]; I.1 alone 31.25 g/ha a.i.,50%
same,pest or weed control at 62.5 g/ha,[3]; I.1 alone 62.5 g/ha a.i.,80%
same,pest or weed control at 31.25 g/ha,[3]; 31.25 g/ha a.i.,50%
same,pest or weed control at 62.5 g/ha,[3]; 62.5 g/ha a.i.,50%
same,pest or weed control at 125 g/ha,[3],80%
same,pest or weed control at 31.25 g/ha,[3]; I.1 31.25 g/ha a.i.,60%
same,pest or weed control at 62.5 g/ha,[3]; I.1 62.5 g/ha a.i.,60%
same,pest or weed control at 62.5 g/ha,"[3]; single active, 62.5 g/ha a.i.",65%
same,pest or weed control at 125 g/ha,[3]; single active,65%
same,herbicidal activity against GALAP found,"[3]; 6 days after treatment, g/ha a.i.: I.1 62.5, B.96 70, mixture 62.5+70",65
same,herbicidal activity against GALAP found,"[3]; 6 days after treatment, g/ha a.i.: I.1 62.5, B.96 140, mixture 62.5+140",65
same,herbicidal activity against GALAP found,[3]; [13],50
same,herbicidal activity against GALAP found,"[3]; I.1 31.25 g/ha, B.95 2 g/ha a.i.",50
same,herbicidal activity against GALAP found,"[3]; I.1 62.5 g/ha, B.103 7.5 g/ha a.i.",50
same,herbicidal activity against GALAP found,"[3]; I.1 62.5 g/ha, B.95 2 g/ha a.i.",60
same,herbicidal activity against GALAP found,[3]; [7],20%
same,herbicidal activity against GALAP found,"[3]; a.i. g/ha: I.1 20.8, B.67 62.5, 20 days after treatment",0%
same,herbicidal activity against GALAP found,[3]; [8],75%
same,herbicidal activity against GALAP found,"[3]; a.i. g/ha: I.1 31.25, B.92 0.5, 20 days after treatment",65%
same,herbicidal activity against GALAP found,"[3]; a.i. g/ha: I.1 62.5, B.191 225, 20 days after treatment",65%
same,herbicidal activity against GALAP found,"[3]; a.i. g/ha: I.1 62.5, B.67 62.5, 20 days after treatment",10%
same,herbicidal activity against GALAP found,[3]; [9],65%
same,herbicidal activity against GALAP found,"[3]; a.i. g/ha: I.1 62.5, B.77 75, 20 days after treatment",10%
same,herbicidal activity against GALAP found,"[3]; a.i. g/ha: I.1 62.5, B.82 31.25, 20 days after treatment",65%
same,herbicidal activity against GALAP found,"[3]; application rate a.i.: I.1 31.25 g/ha, B.84 (paraquat-dichloride) 17.5 g/ha, alone or as mixture (composition 1.84)",65
same,herbicidal activity against GALAP found,[3]; [10],10
same,herbicidal activity against GALAP found,"[3]; application rate a.i.: I.1 125 g/ha, B.113 (glyphosate) 33.75 g/ha, alone or as mixture (composition 1.113)",80
same,herbicidal activity against GALAP found,"[3]; application rate a.i.: I.1 125 g/ha, B.113 (glyphosate) 135 g/ha, alone or as mixture (composition 1.113)",80
same,herbicidal activity against GALAP found,[3]; [11],50
same,herbicidal activity against GALAP found,[3]; [12],90
same,herbicidal activity against GALAP found,[3]; applied alone at 125 g/ha a.i.,65 and 95 and 90
same,"herbicidal activity against PANMI, found",[4]; B.113 (glyphosate) 33.75 g/ha,60
same,"herbicidal activity against PANMI, found",[4]; B.113 (glyphosate) 135 g/ha,60
same,herbicidal activity against PAPRH found,[5]; 62.5 g/ha a.i.,50
same,herbicidal activity against PAPRH found,"[5]; I.1 15.62 g/ha, B.103 15 g/ha a.i.",30
same,herbicidal activity against PAPRH found,"[5]; I.1 15.62 g/ha, B.88 2 g/ha a.i.",70
same,herbicidal activity against PAPRH found,"[5]; I.1 31.25 g/ha, B.103 15 g/ha a.i.",30
same,herbicidal activity against PAPRH found,[5]; [6],75
same,herbicidal activity against PAPRH found,"[5]; I.1 31.25 g/ha, B.88 2 g/ha a.i.",75
same,herbicidal activity against PAPRH found,[5]; [13],75
same,herbicidal activity against PAPRH found,"[5]; I.1 62.5 g/ha, B.57 2 g/ha a.i.",75
same,herbicidal activity against PAPRH found,"[5]; I.1 62.5 g/ha, B.88 1 g/ha a.i.",75
same,herbicidal activity against PAPRH found,"[5]; I.1 62.5 g/ha, B.88 2 g/ha a.i.",75
same,herbicidal activity against PAPRH found,"[5]; I.1 62.5 g/ha, B.95 1 g/ha a.i.",75
same,herbicidal activity against PAPRH found,[5]; I.1 alone 31.25 g/ha a.i.,70
same,herbicidal activity against PAPRH found,"[5]; application rate a.i.: I.1 62.5 g/ha, B.40 (imazethapyr) 7.5 g/ha, alone or as mixture (composition 1.40)",65
same,herbicidal activity against PAPRH found,"[5]; application rate a.i.: I.1 62.5 g/ha, B.87 (carfentrazone-ethyl) 1.75 g/ha, alone or as mixture (composition 1.87)",85
same,herbicidal activity against PAPRH found,[5]; [11],65
